Data: publication PMC10714400, “Antimicrobial Peptide–Peptoid Hybrids with and without Membrane Disruption” (ACS Infectious Diseases, 2023)
In brackets after ≈: the same amount, converted by molar mass. Where a SMILES comes first, the peptide text is derived from it. [ ]: non-standard residue; d: D form. Nleu = CC(C)CNCC(=O)O; Nlys = NCCCCNCC(=O)O

Assays:
S. aureus Newman = conditions: […] MH at pH 8.5
How it was run: (§1)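 Using MTT as a visual viability dye, MICs were scored as the lowest concentration with no visible growth. Prior to staining, ~5 × 10^5 CFU per well grew in MH medium for ca. 18 h at 37 °C under static conditions.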

HEK293 cells = test: Cell viability assay by Alamar blue
How it was run: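 Cells kept at 37 °C in 5% CO2 with 10% FBS plus penicillin/streptomycin, in RPMI-1640 for A549 and high-glucose DMEM for HEK293, then assessed for viability by Alamar blue; values are mean ± SD of three.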

[1] = tested on: ZEM-1A (clinical MDR P. aeruginosa isolate)
How it was run: as §1

[2] = tested on: ZEM9A (clinical MDR P. aeruginosa isolate); conditions: […] MH at pH 8.5
How it was run: as §1

K. pneumoniae NCTC418 = tested on: K. pneumoniae NCTC418
How it was run: (§2)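 MTT added (20–30 min, room temperature); MIC read by eye as lowest concentration inhibiting visible growth (yellow). Polymyxin B positive control from 16 μg/mL.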

K. pneumoniae OXA-48 = conditions: […] MH at pH 8.5
How it was run: as §1

E. cloacae = conditions: […] MH at pH 8.5
How it was run: as §1

S. aureus COL (MRSA) = tested on: S. aureus COL (MRSA)
How it was run: as §1

PA14 4.18 (pmrB) = tested on: PA14 4.18 (pmrB)
How it was run: as §1

E. coli W3110 = tested on: E. coli W3110
How it was run: as §1

PA14 4.13 (phoQ) = tested on: PA14 4.13 (phoQ)
How it was run: as §1

P. aeruginosa PAO1 = tested on: P. aeruginosa PAO1
How it was run: as §1

A. baumannii ATCC19606 = tested on: A. baumannii ATCC19606
How it was run: as §2

PA14 2P4 (pmrB) = tested on: PA14 2P4 (pmrB)
How it was run: as §1

[3] = diluted MH ([…] MH) at pH 8.5 (Table 2 footnote b)

CC(C)CN(CC(N)=O)C(=O)CN(CC(C)C)C(=O)CN(CC(C)C)C(=O)CN(CCCCN)C(=O)CN(CC(C)C)C(=O)CN(CC(C)C)C(=O)CN(CCCCN)C(=O)CN(CC(C)C)C(=O)CN(CC(C)C)C(=O)CN(CCCCN)C(=O)CNCCCCN [EB11, kkllkllklll] (H-[Nlys][Nlys][Nleu][Nleu][Nlys][Nleu][Nleu][Nlys][Nleu][Nleu][Nleu]-NH2)
MIC S. aureus Newman, […] MH at pH 8.5 (S. aureus Newman; CSV): 4 ug/mL
MIC S. aureus Newman (S. aureus Newman; Table S3): 4 µg/mL (≈ 3.03 µM)
Toxicity against HEK293 cells, no effect detected up to (HEK293 cells; Alamar blue, 24 h): > 200 µM
IC50 (HEK293 cells; read-out: Toxicity on HEK293 cells, CSV): > 200 µM
MIC P. aeruginosa ZEM-1A, […] MH at pH 8.5 ([1]; CSV, […] MH at pH 8.5): 3 ug/mL
MIC P. aeruginosa ZEM-1A ([1]; Table S3, […] MH at pH 8.5): 2 to 4 µg/mL
MIC ZEM-1A [1, 3]: 2 to 4 µg/mL
MIC P. aeruginosa ZEM9A, […] MH at pH 8.5 ([2]; CSV): 4 ug/mL
MIC P. aeruginosa ZEM9A ([2]; Table S3): 4 µg/mL (≈ 3.03 µM)
MIC K. pneumoniae NCTC418, […] MH at pH 7.4 (K. pneumoniae NCTC418; CSV, […] MH at pH 7.4): 32 ug/mL
MIC K. pneumoniae NCTC418, […] MH at pH 8.5 (K. pneumoniae NCTC418; CSV, […] MH at pH 8.5): 32 ug/mL
MIC K. pneumoniae NCTC418, full MH at pH 7.4 (K. pneumoniae NCTC418; CSV, full MH at pH 7.4): >32 ug/mL
MIC K. pneumoniae NCTC418, full MH at pH 8.5 (K. pneumoniae NCTC418; CSV, full MH at pH 8.5): >32 ug/mL
MIC K. pneumoniae NCTC418 […] 7.4 (K. pneumoniae NCTC418; Table S2, […] MH, pH 7.4): 32 µg/mL (≈ 24.2 µM)
MIC K. pneumoniae NCTC418 […] 8.5 (K. pneumoniae NCTC418; Table S2, […] MH, pH 8.5): 32 µg/mL (≈ 24.2 µM)
MIC K. pneumoniae NCTC418 Full MH 7.4 (K. pneumoniae NCTC418; Table S2, full MH, pH 7.4): > 32 µg/mL
MIC K. pneumoniae NCTC418 Full MH 8.5 (K. pneumoniae NCTC418; Table S2, full MH, pH 8.5): > 32 µg/mL
MIC K. pneumoniae OXA-48, […] MH at pH 8.5 (K. pneumoniae OXA-48; CSV): 32 ug/mL
MIC K. pneumoniae OXA-48 (K. pneumoniae OXA-48; Table S3): 32 µg/mL (≈ 24.2 µM)
MIC E. cloacae, […] MH at pH 8.5 (E. cloacae; CSV): 16 ug/mL
MIC E. cloacae (E. cloacae; Table S3): 16 µg/mL (≈ 12.1 µM)
MIC S. aureus COL (MRSA), […] MH at pH 7.4 (S. aureus COL (MRSA); CSV, […] MH at pH 7.4): >32 ug/mL
MIC S. aureus COL (MRSA), […] MH at pH 8.5 (S. aureus COL (MRSA); CSV, […] MH at pH 8.5): 6 ug/mL
MIC S. aureus COL (MRSA), full MH at pH 7.4 (S. aureus COL (MRSA); CSV, full MH at pH 7.4): >32 ug/mL
MIC S. aureus COL (MRSA), full MH at pH 8.5 (S. aureus COL (MRSA); CSV, full MH at pH 8.5): >32 ug/mL
MIC S. aureus COL (MRSA) […] 7.4 (S. aureus COL (MRSA); Table S2, […] MH, pH 7.4): > 32 µg/mL
MIC S. aureus COL (MRSA) […] 8.5 (S. aureus COL (MRSA); Table S2, […] MH, pH 8.5): 4 to 8 µg/mL
MIC S. aureus COL (MRSA) Full MH 7.4 (S. aureus COL (MRSA); Table S2, full MH, pH 7.4): > 32 µg/mL
MIC S. aureus COL (MRSA) Full MH 8.5 (S. aureus COL (MRSA); Table S2, full MH, pH 8.5): > 32 µg/mL
MIC S. aureus COL (MRSA) […] (S. aureus COL (MRSA); diluted MH ([…] MH, pH 8.5) per Table 1 footnote b, 16–20 h at 37 °C): >32 µg/mL
MIC P. aeruginosa PA14 4.18, […] MH at pH 8.5 (PA14 4.18 (pmrB); CSV, […] MH at pH 8.5): 12 ug/mL
MIC P. aeruginosa PA14 4.18 (PA14 4.18 (pmrB); Table S3, […] MH at pH 8.5): 8 to 16 µg/mL
MIC PA14 4.18 (pmrB) (PA14 4.18 (pmrB); [3]): 8 to 16 µg/mL
MIC E. coli W3110, […] MH at pH 7.4 (E. coli W3110; CSV, […] MH at pH 7.4): 8 ug/mL
MIC E. coli W3110, […] MH at pH 8.5 (E. coli W3110; CSV, […] MH at pH 8.5): 3 ug/mL
MIC E. coli W3110, full MH at pH 7.4 (E. coli W3110; CSV, full MH at pH 7.4): >32 ug/mL
MIC E. coli W3110, full MH at pH 8.5 (E. coli W3110; CSV, full MH at pH 8.5): >32 ug/mL
Antibacterial activity as a function of NaCl concentration (E. coli W3110; E. coli W3110, […] MH at pH 8.5, up to 300 mM NaCl): strongly reduced
MIC E. coli W3110 […] 7.4 (E. coli W3110; Table S2, […] MH, pH 7.4): 8 µg/mL (≈ 6.05 µM)
MIC E. coli W3110 […] 8.5 (E. coli W3110; Table S2, […] MH, pH 8.5): 2 to 4 µg/mL
MIC E. coli W3110 Full MH 7.4 (E. coli W3110; Table S2, full MH, pH 7.4): > 32 µg/mL
MIC E. coli W3110 Full MH 8.5 (E. coli W3110; Table S2, full MH, pH 8.5): > 32 µg/mL
MIC P. aeruginosa PA14 4.13, […] MH at pH 8.5 (PA14 4.13 (phoQ); CSV, […] MH at pH 8.5): 6 ug/mL
MIC P. aeruginosa PA14 4.13 (PA14 4.13 (phoQ); Table S3, […] MH at pH 8.5): 4 to 8 µg/mL
MIC PA14 4.13 (phoQ) (PA14 4.13 (phoQ); [3]): 4 to 8 µg/mL
MIC P. aeruginosa PAO1, […] MH at pH 7.4 (P. aeruginosa PAO1; CSV, […] MH at pH 7.4): 8 ug/mL
MIC P. aeruginosa PAO1, full MH at pH 7.4 (P. aeruginosa PAO1; CSV, full MH at pH 7.4): >32 ug/mL
MIC P. aeruginosa PAO1, full MH at pH 8.5 (P. aeruginosa PAO1; CSV, full MH at pH 8.5): >32 ug/mL
Antibacterial activity as a function of NaCl concentration (P. aeruginosa PAO1; P. aeruginosa PAO1, […] MH at pH 8.5, up to 300 mM NaCl): strongly reduced
MIC P. aeruginosa PAO1 […] 7.4 (P. aeruginosa PAO1; Table S2, […] MH, pH 7.4): 8 µg/mL (≈ 6.05 µM)
MIC P. aeruginosa PAO1 […] 8.5 (P. aeruginosa PAO1; Table S2, […] MH, pH 8.5): 4 µg/mL (≈ 3.03 µM)
MIC P. aeruginosa PAO1 Full MH 7.4 (P. aeruginosa PAO1; Table S2, full MH, pH 7.4): > 32 µg/mL
MIC P. aeruginosa PAO1 Full MH 8.5 (P. aeruginosa PAO1; Table S2, full MH, pH 8.5): > 32 µg/mL
MIC A. baumannii ATCC19606, […] MH at pH 7.4 (A. baumannii ATCC19606; CSV, […] MH at pH 7.4): 16 ug/mL
MIC A. baumannii ATCC19606, […] MH at pH 8.5 (A. baumannii ATCC19606; CSV, […] MH at pH 8.5): 16 ug/mL
MIC A. baumannii ATCC19606, full MH at pH 7.4 (A. baumannii ATCC19606; CSV, full MH at pH 7.4): >32 ug/mL
MIC A. baumannii ATCC19606, full MH at pH 8.5 (A. baumannii ATCC19606; CSV, full MH at pH 8.5): >32 ug/mL
MIC A. baumannii ATCC19606 […] 7.4 (A. baumannii ATCC19606; Table S2, […] MH, pH 7.4): 16 µg/mL (≈ 12.1 µM)
MIC A. baumannii ATCC19606 […] 8.5 (A. baumannii ATCC19606; Table S2, […] MH, pH 8.5): 16 µg/mL (≈ 12.1 µM)
MIC A. baumannii ATCC19606 Full MH 7.4 (A. baumannii ATCC19606; Table S2, full MH, pH 7.4): > 32 µg/mL
MIC A. baumannii ATCC19606 Full MH 8.5 (A. baumannii ATCC19606; Table S2, full MH, pH 8.5): > 32 µg/mL
MIC P. aeruginosa PA14 2P4, […] MH at pH 8.5 (PA14 2P4 (pmrB); CSV, […] MH at pH 8.5): 12 ug/mL
MIC P. aeruginosa PA14 2P4 (PA14 2P4 (pmrB); Table S3, […] MH at pH 8.5): 8 to 16 µg/mL
MIC PA14 2P4 (pmrB) (PA14 2P4 (pmrB); [3]): 8 to 16 µg/mL
